Drawing on the OPERA property sets (Mansouri et al. 2018), this text covers logP for 26 compounds.

For the compound `Nc1ccc(S(=O)(=O)c2ccc(NO)cc2)cc1`, the logP was found to be 0.88.

`CC(=O)c1ccc(S(=O)(=O)c2ccc(N)cc2)cc1` gave a logP of 1.67.

`Cc1cc(C)c(S(=O)(=O)c2ccc(N)cc2)c(C)c1` registered a log partition coefficient (logP) of 3.06.

With `Nc1ccc(S(=O)(=O)c2ccc([N+](=O)[O-])cc2)cc1`, the lipophilicity (logP) came out at 2.04.

Compound `Nc1ccc(S(=O)(=O)c2ccc(O)cc2O)cc1` yielded a logP of 1.29.

Turning to `CCNc1ccc(S(=O)(=O)c2ccc(N)cc2)cc1`, the logP is 1.98.

`Nc1ccc(S(=O)(=O)c2ccccc2)cc1`: the logP is 1.76.

Compound `Cc1ccc(S(=O)(=O)c2ccc(N)cc2)c(C)c1` returned a lipophilicity (logP) of 2.71.

`COC(=O)c1ccc(S(=O)(=O)c2ccc(N)cc2)cc1` displayed a lipophilicity (logP) of 2.13.

With `CCN(CC)C(=O)c1ccc(S(=O)(=O)c2ccc(N)cc2)cc1`, the logP stood at 1.44.

For `Nc1ccc(S(=O)(=O)c2ccc(Cl)cc2)cc1`, the lipophilicity (logP) is 2.57.

`Nc1ccc(S(=O)(=O)c2ccccc2N)cc1` had a logP of 1.56.

Consider `CN(C)c1ccc(S(=O)(=O)c2ccc(N)cc2)cc1`, for which the logP was found to be 1.99.

Compound `NC(=O)c1ccc(S(=O)(=O)c2ccc(N)cc2)cc1` returned a logP of 0.9.

In the case of `CCN(CC)c1ccc(S(=O)(=O)c2ccc(N)cc2)cc1`, the logP was 3.

In turn, `Nc1ccc(S(=O)(=O)c2cccc(N)c2)cc1` showed a logP of 1.03.

`Cc1ccc(S(=O)(=O)c2ccc(N)cc2)cc1`: the logP is 2.4.

In the case of `Nc1ccc(S(=O)(=O)c2ccc(N)cc2N)cc1`, the log partition coefficient (logP) was determined as 0.38.

For `COc1cc(OC)c(S(=O)(=O)c2ccc(N)cc2)c(OC)c1`, the lipophilicity (logP) stood at 1.03.

Compound `Nc1ccc(S(=O)(=O)c2ccc(O)cc2)cc1` displayed a logP of 1.57.

Turning to `Nc1ccc(S(=O)(=O)c2ccc([N+](=O)[O-])cc2[N+](=O)[O-])cc1`, the log partition coefficient (logP) was 1.84.

`Nc1ccc(S(=O)(=O)c2ccc(Cl)cc2Cl)cc1` came in with a log partition coefficient (logP) of 3.12.

`N#Cc1ccc(S(=O)(=O)c2ccc(N)cc2)cc1` registered a log partition coefficient (logP) of 1.63.

The compound `Nc1ccc(S(=O)(=O)c2ccc(Br)cc2)cc1` yielded a lipophilicity (logP) of 2.85.

`COc1ccc(S(=O)(=O)c2ccc(N)cc2)c(OC)c1` registered a lipophilicity (logP) of 1.64.

The compound `COc1ccc(S(=O)(=O)c2ccc(N)cc2)cc1` registered a lipophilicity (logP) of 1.96.
